Assay results: EP1214933A1, “METHOD FOR MODULATING THE METABOLISM OF NITROGEN OXIDES, COMPOSITIONS THEREFOR (AND VARIANTS) AND METHOD FOR ACTING ON A PATIENT'S ORGANISM NECESSITATING THE METABOLISM OF NITROGEN OXIDES TO BE CORRECTED” (Institut Molekulyarnoi Genetiki Rossiiskoi Akademii Nauk ( …, priority 1999, dated 2001)

Legend:
[1] = Efficacy of renitrosation catalysts by N1-nitrozotriptophan denitrosation kinetics; type: biochemical; conditions: 32°C, normalized for the buffer molarity
Procedure: The efficacy of renitrosation catalysts was determined by N^1-nitrozotriptophan (NOW) denitrosation kinetics in the composition of an acylic derivative or serum albumin at 32°C and at different pH values by absorption decrease at λ = 340 nm or by differential spectroscopy relative to denitrosation reaction in a buffer solution, in relation to nitrite/nitrate ratio or by the ratio analysis of nitrosation products. Examples 7-17 illustrate catalytic and inhibitory activity of W^0/W^0buffer compounds used in the claimed compositions (normalized for the buffer molarity).

NO oxidation in blood = assay: In vivo micellar NO oxidation catalysis: arterial pressure and plasma nitrite/nitrate; set-up: species or system male rats of Wistar normotensive line; conditions: for nitrate increased by / nitrite level increased by: plasma, following NaNO2 injection
Procedure: The experiment was performed on male rats of Wistar normotensive line weighing 180-400 grams. Polyethylene catheters were implanted to animals under Ketamine anesthesia (5mg/100g intraperitoneally) 24 hours prior to the experiment. The femoral artery was catheterized for connecting to arterial blood pressure (AP) transducer and the femoral vein was catheterized for intravenous administering medicinal preparations. AP and heart rate (HR) were measured in the abdominal aorta using a pressure transducer connected to a computer through an amplifier and a digital converter. The animals were divided into groups each consisting of a control and a test subgroups. […] Monitoring AP and HR was continued for 1.5 hours after administering the solutions. Following recording initial AP level group one (group L-NAME) was intraperitonelly administered an inhibitor of NO-synthases N^ω-nitro-L-arginine methyl ester (50 mg/kg) and in 1.5 hours when AP stabilized at a steady level NaNO2 (1 mg/kg) was administered. After a steady lowering AP the animals were administered Perftoran or KH. Group two of rats (group FC) was administered Perftoran or KH immediately after recording initial AP level. Group three (group FCTh) was first administered 200 mg/kg α-lipoic acid and in 15 minutes it was administered Perftoran (or KH). Before commencement of each experiment, after AP got stabilized at a steady level while administering L-NAME and NaNO2 and also immediately following completion of monitoring 0.2 ml blood were taken in each experiment from the arterial catheter for analysis.

[2] = reference buffer Phosphate, pH 6.3
[3] = group L-NAME, experimental animals

For `O=P([O-])([O-])OP(=O)([O-])OP(=O)([O-])[O-].[Na+].[Na+].[Na+].[Na+].[Na+]` [Example 7, Na5P3O10], the “W^0/W^0 buffer” value [1, 2] was 4.

With `COC(=O)[C@@H](N)CCCNC(=N)N[N+](=O)[O-]` [L-NAME, N^ω-nitro-L-arginine methyl ester] the “Plasma levels of nitrites and nitrates” value (NO oxidation in blood; group L-NAME, after NOS inhibitor administration) was “insignificant lowering” and the “mean arterial blood pressure (MAP) raised by” value (NO oxidation in blood; group L-NAME, both subgroups, following L-NAME 50 mg/kg intraperitoneally) was 38±5 mm Hg.

With `NC(N)=NCCCC(N)C(=O)O` [Example 13, D-Arg] the “W^0/W^0 buffer” value ([1]; reference buffer MOPS, pH 6) was 0.56.

With Na2MnATP [Example 8] the “W^0/W^0 buffer” value [1, 2] was 0.7.

In the case of `O=P([O-])([O-])OP(=O)([O-])OP(=O)([O-])[O-].[Mg+2].[Na+].[Na+].[Na+]` [Example 10, Na3MgP3O10], the “W^0/W^0 buffer” value [1, 2] is reported as 11.

For `O=C(O)CCCCC1CCSS1` (stereo not drawn) [α-lipoic acid], the MAP change (NO oxidation in blood; FCTh group, both subgroups, α-lipoic acid 200 mg/kg) was “insignificant lowering MAP”.

For `O=P([O-])([O-])OP(=O)([O-])OP(=O)([O-])[O-].[Mn+2].[Na+].[Na+].[Na+]` [Example 9, Na3MnP3O10], the “W^0/W^0 buffer” value [1, 2] was 21.

With `O=N[O-].[Na+]` [NaNO2] the “lowering MAP by” value (NO oxidation in blood; group L-NAME, both subgroups, NaNO2 1 mg/kg after L-NAME) was 25±4 mm Hg, the “nitrate increased by” value (NO oxidation in blood; group L-NAME, controls) was 76 ± 26 µM and the “nitrite level increased by” value (NO oxidation in blood; group L-NAME, controls) was 362 ± 73 µM. For the same compound, the “nitrate increased by” value (NO oxidation in blood; [3]) was 87 ± 15 µM and the “nitrite level increased by” value (NO oxidation in blood; [3]) was 344 ± 68 µM.

For `O=C1O[C@H]([C@@H](O)CO)C(O)=C1O` [Example 17, Ascorbic acid], the “W^0/W^0 buffer” value ([1]; reference buffer Phosphate, pH 5.9) was 32.
